Test results as given in US20050038112A1, “Simplified sarcondictyn derivatives as anti-tumor agents” (priority 2001, published 2005).
Where two headings read alike, the source gives them in different places.

Columns and labels:
[1] = system: A2780 cells; assay: Cytotoxicity (SRB colorimetric assay) on A2780 cells; format: cell-based; conditions: 72 h incubation, concentration inhibiting cell proliferation by 50%
Method: (§1) A2780 cells (2000/well) were seeded in multiwell plates (96 wells) in the presence of 200 μl of the complete medium RPMI 1640+10% FCS. After 24 h, the cells were treated with the compounds: the compounds' solution (200×) was prepared in DMSO 100% and 1 μl/well was added. 5 scalar concentrations for each compound were tested in four replicates. The cells were incubated at 37° C., 5% CO2 for 72 h.
(§2) Colorimetric assay (SRB: sulforhodamine B): cell cultures were fixed with trichloroacetic acid, stained with 0.4% SRB dissolved in 1% acetic acid. Unbound dye was removed by four washes with 1% acetic acid and protein-bound dye was extracted with 10 mM Tris base for determination of optical density in a 96-well microtiter plate reader. IC50 and IC90 (concentration inhibiting cell proliferation by 50 or 90%) were determined by data analysis in the Microsoft Excel 97 program.

[2] = system: Human colon carcinoma HCT116 cells; assay: Cytotoxicity on HCT116 tumor cell line; format: cell-based
[3] = molecular target: T1, Pig brain tubulin (Sus scrofa, UniProt P02554); assay: Microtubule assembly and disassembly assay (tubulin polymerizing activity); format: biochemical; conditions: 0.5 mg/ml tubulin, 37° C., turbidity at 340 nm; for EC50: effective dose that induces 50% tubulin polymerisation, read-out: ED50 (the source's name); for ED90: effective dose that induces 90% tubulin polymerisation
T1 construct: Pig brain tubulin was prepared by two cycles of assembly and disassembly; from tissue; host or cells: pig brain
Method: Pig brain tubulin was prepared by two cycles of assembly and disassembly and it was stored in liquid nitrogen in Microtubule Assembly Buffer (MAB: 0.1 M MES, 2.5 mM EGTA, 0.5 mM MgSO4, 0.1 mM EDTA, 0.1 mM DTT pH 6.4). Assembly was monitored by the method of Gaskin et al. (Gaskin F, Cantor C R, Shelanski M L, 1974,: Turbidimetric studies of the in vitro assembly and disassembly of porcine neurotubules. J. Mol. Biol. 89: 737-758). The cuvette (1 cm path) containing 0.5 mg/ml tubulin and 1 mM GTP was shifted to 37° C. and continuous turbidity measurements were made at 340 nm on a spectrophotometer equipped with an automatic recorder and a thermostatically regulated sample chamber. After 30 min CaCl2 (5 mM) was added and disassembly was monitored for 10 mm as decreased turbidity. Scalar doses of test compounds were monitored at regular intervals of 15 min.
(ED50 and ED90) was calculated on this curve.

[4] = system: Human colon carcinoma HT29 cells; assay: Cytotoxicity on HT29 tumor cell line; format: cell-based
Method: as §1, §2
Human colon carcinoma HT29 cells were also used to study the cytotoxicity of the compounds of the present invention.

T1 sequence (P02554 whole entry): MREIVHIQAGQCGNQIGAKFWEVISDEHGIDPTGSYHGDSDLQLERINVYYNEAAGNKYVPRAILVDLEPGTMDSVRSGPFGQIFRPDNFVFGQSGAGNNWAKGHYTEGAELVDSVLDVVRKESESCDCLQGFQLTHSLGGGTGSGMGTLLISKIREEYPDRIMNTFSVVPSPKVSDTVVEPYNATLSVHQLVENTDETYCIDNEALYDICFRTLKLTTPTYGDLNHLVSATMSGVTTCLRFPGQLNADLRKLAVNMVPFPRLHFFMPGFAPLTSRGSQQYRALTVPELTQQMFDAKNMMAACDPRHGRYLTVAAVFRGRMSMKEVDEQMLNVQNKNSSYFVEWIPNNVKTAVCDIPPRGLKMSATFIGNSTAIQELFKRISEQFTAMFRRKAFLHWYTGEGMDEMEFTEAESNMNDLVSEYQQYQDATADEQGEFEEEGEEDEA
T1 sequence (P02550 whole entry partner): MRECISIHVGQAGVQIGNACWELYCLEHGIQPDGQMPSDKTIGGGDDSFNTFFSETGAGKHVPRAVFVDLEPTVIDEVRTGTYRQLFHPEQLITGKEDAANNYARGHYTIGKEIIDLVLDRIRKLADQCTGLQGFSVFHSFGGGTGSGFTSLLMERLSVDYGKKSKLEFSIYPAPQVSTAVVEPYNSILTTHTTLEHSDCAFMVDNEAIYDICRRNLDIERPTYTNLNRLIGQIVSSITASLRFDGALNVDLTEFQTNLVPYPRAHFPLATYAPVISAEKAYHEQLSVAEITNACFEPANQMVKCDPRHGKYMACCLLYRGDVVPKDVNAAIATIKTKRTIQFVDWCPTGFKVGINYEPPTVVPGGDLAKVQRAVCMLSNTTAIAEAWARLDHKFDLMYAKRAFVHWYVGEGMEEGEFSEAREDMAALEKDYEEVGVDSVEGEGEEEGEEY

Structure (SMILES) | IC50 ([1]; Homo sapiens) [µM] | IC50 ([2]; Homo sapiens, HCT-116) [µM] | EC50 [3] [nM] | ED90 [3] [µM] | IC50 ([4]; Homo sapiens, HT-29) [µM] | IC50 [1] [µM] | IC50 [2] [µM] | IC50 [4] [µM]
CC(=O)O[C@@H]1C/C=C\C[C@@H](OC(=O)/C=C/c2cn(C)cn2)C[C@H]2C(C)=CC[C@H](C(C)C)[C@H]2C1 [Example 12, 3-(1-Methyl-1H-imidazol-4-yl)-acrylic acid 11-acetoxy-1-isopropyl-4-methyl-1,2,4a,5,6,7,10,11,12,12a-decahydro-benzocyclodecen-6-yl ester] | 4 | 12 | 2000 | 10.0 |  |  |  | 
CC1=CC[C@H](C(C)C)[C@H]2CC(=O)C/C=C\C[C@@H](OC(=O)/C=C/c3cn(C)cn3)C[C@@H]12 [Example 16, (E)-3-(1-Methyl-1H-imidazol-4-yl)-acrylic acid [(1R,4aR,6R,12aR)-1-isopropyl-4-methyl-11-oxo-1,2,4a,5,6,7,10,11,12,12a-decahydro-benzocyclodecen-6-enyl]ester] | 40 | 35 to 60 | 200 | 1.2 | 30 |  |  | 
CC1=CC[C@H](C(C)C)[C@H]2C[C@H](OC(=O)C(C)(C)C)[C@@H](O)C=CC[C@@H](OC(=O)C=Cc3cn(C)cn3)C[C@@H]12 [Example 34, 3-(1-Methyl-1H-imidazol-4-yl)-acrylic acid [(1R,4aR,6R,10S,10S,12aR)-11-(2,2-dimethyl-propionyloxy)-10-hydroxy-1-isopropyl-4-methyl-1,2,4a,5,6,7,10,11,12,12a-decahydro-benzocyclodecen-6-yl}ester] |  |  | 1000 | 1.8 |  | 4 | 4 | 5
C=C1C/C=C\C[C@@H](OC(=O)/C=C/c2cn(C)cn2)C[C@H]2C(C)=CC[C@H](C(C)C)[C@H]2C1 [Example 19] | 4 | 5 | 5000 | 16.0 | 6 |  |  | 
CC(=O)O[C@H]1C=CC[C@@H](OC(=O)/C=C/c2cn(C)cn2)C[C@H]2C(C)=CC[C@H](C(C)C)[C@H]2C[C@@H]1OC(=O)C(C)(C)C [Example 30, (E)-3-(1-Methyl-1H-imidazol-4-yl)-acrylic acid [(1R,4aR,6R,10S,11S,12aR)-10-acetoxy-11-(2,2-dimethyl-propionyloxy)-1-isopropyl-4-methyl-1,2,4a5,6,7,10,11,12,12a-decahydro-benzocyclodecen-6-yl]ester] |  |  | 1000 | 1.7 |  |  |  | 
CO[C@H]1C=CC[C@@H](OC(=O)/C=C/c2cn(C)cn2)C[C@H]2C(C)=CC[C@H](C(C)C)[C@H]2C[C@@H]1OC(=O)C(C)(C)C [Example 27, (E)-3-(1-Methyl-1H-imidazol-4-yl)-acrylic acid [(1R,4aR,6R,10S,11S,12aR)-11-(2,2-dimethyl-propionyloxy)-1-isopropyl-10-methoxy-4-methyl-1,2,4a,5,6,7,10,11,12,12a-decahydro-benzocyclodecen-6-yl}ester] | < 5 | 10 to 25 | 3000 |  | 7 |  |  | 
